Where a SMILES comes first, the peptide text is derived from it. [ ]: non-standard residue; d: D form. hLeu = CC(C)CC[C@H](N)C(=O)O
Target: T1, Interleukin-23 receptor (Homo sapiens, UniProt Q5VWK5)
T1 sequence (Q5VWK5 whole entry): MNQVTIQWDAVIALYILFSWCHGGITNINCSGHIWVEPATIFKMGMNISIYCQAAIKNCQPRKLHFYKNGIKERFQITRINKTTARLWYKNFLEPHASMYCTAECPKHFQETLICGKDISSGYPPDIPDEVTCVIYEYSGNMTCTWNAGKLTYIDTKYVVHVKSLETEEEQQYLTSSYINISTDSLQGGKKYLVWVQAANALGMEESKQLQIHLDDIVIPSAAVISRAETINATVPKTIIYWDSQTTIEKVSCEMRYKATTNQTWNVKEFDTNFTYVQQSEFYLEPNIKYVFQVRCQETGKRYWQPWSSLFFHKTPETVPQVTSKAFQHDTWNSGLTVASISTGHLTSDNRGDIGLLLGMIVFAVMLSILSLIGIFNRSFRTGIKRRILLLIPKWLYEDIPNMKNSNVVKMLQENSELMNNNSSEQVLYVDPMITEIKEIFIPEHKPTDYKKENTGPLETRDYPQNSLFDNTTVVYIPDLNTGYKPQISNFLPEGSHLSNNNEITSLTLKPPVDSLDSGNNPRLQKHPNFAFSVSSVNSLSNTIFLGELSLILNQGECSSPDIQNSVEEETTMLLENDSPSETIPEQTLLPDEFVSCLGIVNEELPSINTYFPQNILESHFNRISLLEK
Experiment: Inhibition of interleukin-23 binding to human interleukin-23 receptor incubated for 2 hrs by competitive binding ELISA

| SMILES | IC50 [µM] |
| --- | --- |
| N=C(N)NCCC[C@H](NC(=O)[C@H](Cc1c[nH]c2ccccc12)NC(=O)[C@H](Cc1ccc(O)cc1)NC(=O)[C@@H]1CSCCCC(=O)N[C@@H](CCC(N)=O)C(=O)N[C@@H](CC(=O)O)C(=O)N[C@@H](Cc2c[nH]c3ccccc23)C(=O)N[C@@H](CCC(N)=O)C(=O)N1)C(=O)N[C@@H](CCC(=O)O)C(=O)N[C@@H](CC(N)=O)C(=O)NCC(=O)NCCOCC(=O)N[C@H](CCCCN)C(N)=O | 6 |
| CC[C@H](C)[C@H](NC(=O)[C@H](Cc1cnc[nH]1)NC(=O)[C@H](Cc1c[nH]c2ccccc12)NC(=O)[C@H](Cc1ccc(O)cc1)NC(=O)[C@H](CS)NC(=O)[C@H](CCCCN)NC(=O)[C@H](Cc1c[nH]c2ccccc12)NC(=O)[C@H](CC(=O)O)NC(=O)[C@H](CCCCN)NC(=O)[C@@H](N)CS)C(=O)N[C@@H](Cc1ccc(O)cc1)C(=O)NCC(N)=O (H-CKDWKCYWHIYG-NH2) | > 1 |
| CC(=O)N[C@@H](CS)C(=O)N[C@@H](CCC(N)=O)C(=O)N[C@H](C(=O)N[C@@H](Cc1c[nH]c2ccccc12)C(=O)N[C@@H](CCC(N)=O)C(=O)N[C@@H](CS)C(=O)N[C@@H](Cc1ccc(O)cc1)C(=O)N[C@@H](Cc1c[nH]c2ccccc12)C(=O)N[C@@H](CCCNC(=N)N)C(=O)N[C@@H](CCC(=O)O)C(=O)N[C@@H](CC(N)=O)C(=O)NCC(=O)NCCOCC(=O)N[C@H](CCCNC(=N)N)C(N)=O)[C@@H](C)O | < 0.5 |
| CC(=O)N[C@@H](CS)C(=O)N[C@@H](CCCNC(=N)N)C(=O)N[C@H](C(=O)N[C@@H](Cc1c[nH]c2ccccc12)C(=O)N[C@@H](CCC(N)=O)C(=O)N[C@@H](CS)C(=O)N[C@@H](Cc1ccc(O)cc1)C(=O)N[C@@H](Cc1c[nH]c2ccccc12)C(=O)N[C@@H](CCCNC(=N)N)C(=O)N[C@@H](CCCCN)C(=O)N[C@@H](Cc1ccccc1)C(=O)NCC(=O)NCCOCC(=O)N[C@H](CCCCN)C(N)=O)[C@@H](C)O | < 0.5 |
| CC(=O)N[C@@H](CS)C(=O)N[C@@H](CCC(N)=O)C(=O)N[C@H](C(=O)N[C@@H](Cc1c[nH]c2ccccc12)C(=O)N[C@@H](CCC(N)=O)C(=O)N[C@@H](CS)C(N)=O)[C@@H](C)O (Ac-CQTWQC-NH2) | > 30 |
| CC(=O)N[C@@H](CS)C(=O)N[C@@H](CCC(N)=O)C(=O)N[C@H](C(=O)N[C@@H](Cc1c[nH]c2ccccc12)C(=O)N[C@@H](CCC(N)=O)C(=O)N[C@@H](CS)C(=O)N[C@@H](Cc1ccc(O)cc1)C(=O)N[C@@H](CCc1ccccc1)CC(=O)N[C@@H](CCCNC(=N)N)C(=O)N[C@H](C(=O)N[C@@H](CC(N)=O)C(=O)NCC(=O)NCCOCC(=O)N[C@H](CCCCN)C(N)=O)C(C)C)[C@@H](C)O | > 30 |
| CC(=O)N[C@@H](CS)C(=O)N[C@@H](C)C(=O)N[C@@H](CC(=O)O)C(=O)N[C@@H](Cc1c[nH]c2ccccc12)C(=O)N[C@H](C(=O)N[C@@H](CS)C(=O)N[C@@H](Cc1ccc(O)cc1)C(=O)N[C@H](C(=O)N[C@@H](CCCN)C(=O)N[C@@H](CN)C(=O)N[C@@H](Cc1ccccc1)C(=O)NCC(=O)NCCOCC(=O)N[C@H](CCCCN)C(N)=O)C1CCC(c2ccccc2)CC1)C(C)C (some centres not stated) | > 3 |
| CSCC[C@H](NC(=O)[C@@H](N)CS)C(=O)N[C@H](C(=O)N[C@@H](Cc1c[nH]c2ccccc12)C(=O)N[C@@H](CCC(N)=O)C(=O)N[C@@H](CS)C(=O)N[C@@H](Cc1ccc(O)cc1)C(=O)N[C@@H](Cc1c[nH]c2ccccc12)C(=O)N[C@@H](CC(C)C)C(=O)N[C@@H](Cc1ccc(O)cc1)C(=O)NCC(=O)N[C@@H](CCCNC(=N)N)C(=O)NCCOCC(=O)N[C@H](CCCCN)C(N)=O)[C@@H](C)O | > 30 |
| CC(=O)N[C@@H](CS)C(=O)N[C@@H](CCC(N)=O)C(=O)N[C@H](C(=O)N[C@H](C(=O)N[C@@H](CCC(N)=O)C(=O)N[C@@H](CS)C(=O)N[C@@H](Cc1ccc(O)cc1)C(=O)N[C@@H](Cc1c[nH]c2ccccc12)C(=O)N[C@@H](CCC(C)C)C(=O)N[C@@H](CCC(=O)O)C(=O)N[C@@H](CC(N)=O)C(=O)NCC(N)=O)[C@@H](C)O)[C@@H](C)O (Ac-CQTTQCYW[hLeu]ENG-NH2) | > 10 |
| CC(=O)N[C@H]1CCSC[C@@H](C(=O)N[C@@H](Cc2ccc(OCCN)cc2)C(=O)N[C@@H](Cc2ccc3ccccc3c2)C(=O)N[C@@](C)(CCCCN)C(=O)N[C@@H](CCC(=O)O)C(=O)N[C@@H](CC(N)=O)C(=O)NCC(N)=O)NC(=O)[C@H](CCC(N)=O)NC(=O)[C@H](c2ccc(OCCN)cc2)NC(=O)[C@H]([C@@H](C)O)NC(=O)[C@H](CCC(N)=O)NC1=O | > 3 |
| CC(=O)N[C@@H](CS)C(=O)N[C@@H](CCC(N)=O)C(=O)N[C@H](C(=O)N[C@@H](Cc1c[nH]c2ccccc12)C(=O)N[C@@H](CCC(N)=O)C(=O)N[C@@H](CS)C(=O)N[C@@](C)(Cc1ccccc1)C(=O)N[C@@H](Cc1c[nH]c2ccccc12)C(=O)N[C@@H](CCC(C)C)C(=O)N[C@@H](CCC(=O)O)C(=O)N[C@@H](CC(N)=O)C(=O)NCC(N)=O)[C@@H](C)O | 30 |
| CC(=O)N[C@@H](CS)C(=O)N[C@@H](C)C(=O)N[C@@H](CC(=O)O)C(=O)N[C@@H](Cc1c[nH]c2ccccc12)C(=O)N[C@H](C(=O)N[C@@H](CS)C(=O)N[C@@H](Cc1ccc(O)cc1)C(N)=O)C(C)C | > 30 |
| CC(=O)NCCCC[C@H](NC(=O)[C@](C)(CCCCN)NC(=O)[C@H](Cc1ccc2ccccc2c1)NC(=O)[C@H](Cc1ccc(Cl)c(Cl)c1)NC(=O)[C@@H](NC(=O)[C@H](CCC(N)=O)NC(=O)[C@H](Cc1c[nH]c2ccccc12)NC(=O)[C@@H](NC(=O)[C@H](CCC(N)=O)NC(=O)[C@@H](NC(C)=O)C(C)(C)S)[C@@H](C)O)C(C)(C)S)C(=O)N[C@@H](CC(N)=O)C(=O)NCC(N)=O | 0.1 to 1 |
| CC[C@H](C)[C@H](NC(=O)[C@H](Cc1cnc[nH]1)NC(=O)[C@H](Cc1c[nH]c2ccccc12)NC(=O)[C@H](Cc1ccc(O)cc1)NC(=O)[C@H](CS)NC(=O)[C@H](CCC(=O)O)NC(=O)[C@H](Cc1c[nH]c2ccccc12)NC(=O)[C@H](CC(=O)O)NC(=O)[C@H](CO)NC(=O)[C@@H](N)CS)C(=O)N[C@@H](Cc1ccccc1)C(=O)NCC(N)=O (H-CSDWECYWHIFG-NH2) | > 1 |

More lines, now with the values ahead:

| IC50 [µM] | SMILES |
| --- | --- |
| > 1 | CC(=O)N[C@@H](CS)C(=O)N[C@@H](C)C(=O)N[C@@H](CC(=O)O)C(=O)N[C@@H](Cc1c[nH]c2ccccc12)C(=O)N[C@H](C(=O)N[C@@H](CS)C(=O)N[C@@H](Cc1ccc(O)cc1)C(=O)N[C@@H](Cc1cccc2ccccc12)C(=O)N[C@H](C)C(=O)N[C@H](C(=O)N[C@@H](Cc1ccccc1)C(=O)NCC(N)=O)[C@@H](C)O)C(C)C |
| > 1 | CC(C)[C@H](NC(=O)[C@H](Cc1c[nH]c2ccccc12)NC(=O)[C@H](CC(=O)O)NC(=O)CN(C)C(=O)[C@@H](N)CS)C(=O)N[C@@H](CS)C(=O)N[C@@H](Cc1ccc(O)cc1)C(=O)N[C@@H](Cc1cccc2ccccc12)C(=O)N[C@@H](Cc1cnc[nH]1)C(=O)N[C@H](C(=O)N[C@@H](Cc1ccccc1)C(=O)O)[C@@H](C)O |
| > 1 | CC(C)[C@H](NC(=O)[C@H](Cc1c[nH]c2ccccc12)NC(=O)[C@H](CC(=O)O)NC(=O)[C@H](C)NC(=O)[C@@H](N)CS)C(=O)N[C@@H](CS)C(=O)N[C@@H](Cc1ccc(O)cc1)C(=O)N[C@@H](Cc1c[nH]c2ccccc12)C(=O)N[C@@H](Cc1cnc[nH]1)C(=O)N[C@H](C(=O)N[C@@H](Cc1ccccc1)C(N)=O)[C@@H](C)O |
| > 1 | CC(=O)N[C@@H](CS)C(=O)N[C@@H](C)C(=O)N[C@@H](CC(=O)O)C(=O)N[C@@H](Cc1c[nH]c2ccccc12)C(=O)N[C@H](C(=O)N[C@@H](CS)C(=O)N[C@@H](Cc1ccc(O)cc1)C(=O)N[C@@H](Cc1cccc2ccccc12)C(=O)N[C@@H](Cc1cnc[nH]1)C(=O)N[C@H](C(=O)N[C@@H](Cc1ccccc1)C(=O)NC(C)(C)C(N)=O)[C@@H](C)O)C(C)C |
| < 0.5 | CC(=O)N[C@@H](CS)C(=O)N[C@@H](C)C(=O)N[C@@H](CC(=O)O)C(=O)N[C@@H](Cc1c[nH]c2ccccc12)C(=O)N[C@H](C(=O)N[C@@H](CS)C(=O)N[C@@H](Cc1ccc(O)cc1)C(=O)N[C@@H](Cc1c[nH]c2ccccc12)C(=O)N[C@@H](Cc1cnc[nH]1)C(=O)N[C@H](C(=O)N[C@@H](Cc1ccccc1)C(=O)NCC(=O)N1CCC[C@H]1C(=O)N[C@H](CCCCN)C(=O)O)[C@@H](C)O)C(C)C |
| > 1 | CC(=O)N[C@@H](CS)C(=O)N[C@@H](CCCCN)C(=O)N[C@@H](CC(=O)O)C(=O)N[C@@H](Cc1c[nH]c2ccccc12)C(=O)N[C@H](C(=O)N[C@@H](CS)C(=O)N[C@@H](Cc1ccc(O)cc1)C(=O)N[C@@H](Cc1c[nH]c2ccccc12)C(=O)N[C@@H](Cc1cnc[nH]1)C(=O)N[C@H](C(=O)N[C@@H](Cc1ccccc1)C(=O)NCC(=O)O)[C@@H](C)O)C(C)C |
| < 0.5 | CC(=O)N[C@@H](CS)C(=O)N[C@@H](C)C(=O)N[C@@H](CC(=O)O)C(=O)N[C@@H](Cc1c[nH]c2ccccc12)C(=O)N[C@H](C(=O)N[C@@H](CS)C(=O)N[C@@H](Cc1ccc(O)cc1)C(=O)N[C@@H](Cc1c[nH]c2ccccc12)C(=O)N[C@@H](Cc1cnc[nH]1)C(=O)N[C@H](C(=O)N[C@@H](Cc1ccccc1)C(=O)NCC(=O)NCCOCCC(=O)N[C@@H](CCCCN)C(=O)O)[C@@H](C)O)C(C)C |
| > 1 | CC(=O)N[C@@H](CS)C(=O)N[C@@H](C)C(=O)N[C@@H](CC(=O)O)C(=O)N[C@@H](Cc1c[nH]c2ccccc12)C(=O)N[C@H](C(=O)N[C@@H](CS)C(=O)N[C@@H](Cc1ccc(O)cc1)C(=O)N[C@@H](Cc1cccc2ccccc12)C(=O)N[C@@H](Cc1ccccc1)C(=O)N[C@H](C(=O)N[C@@H](Cc1ccccc1)C(=O)NCC(N)=O)[C@@H](C)O)C(C)C |

Source: ChEMBL document CHEMBL4417631, “Oral peptide inhibitors of interleukin-23 receptor and their use to treat inflammatory bowel diseases” (2017)
